# Key:
# Type in all cases: physicochemical
# [1] = Stability of the mixtures on storage at 5° C.; settings: mixtures of table 2
# Protocol: Several of the mixtures of example 1 were stored at night at 5 C to observe the stability.
# (§1) The amount of solvent added to the amount of (E)-3-benzo[1,3]dioxol-5-yl-N,N-diphenyl-2-propenamide is added up to 100 wt.-% in each mixture (1 to 18). Thus the composition of mixture 1 is 99 wt.-% ethanol, 1 wt.-% BDDPA.
# [2] = Solubility of BDDPA in binary and ternary solvent systems at 23° C. and 90° C.
# Protocol: The solubility of (E)-3-benzo[1,3]dioxol-5-yl-N,N-diphenyl-2-propenamide (BDDPA) in different solvent combinations was tested.
# The amount of solvents 1 to 3 add up to 100 wt.-% with the amount of (E)-3-benzo[1,3]dioxol-5-yl-N,N-diphenyl-2-propenamide. Thus the composition of mixture 19 is 5 wt.-% BDDPA, 47.5 wt.-% triacetin and 47.5 wt.-% peppermint oil.
# [3] = Solubility of BDDPA in different solvents at room temperature
# Protocol: The solubility of (E)-3-benzo[1,3]dioxol-5-yl-N,N-diphenyl-2-propenamide (BDDPA) in different solvents was tested.
# as §1
smiles,measurement,setting,value
"O=C(/C=C/c1ccc2c(c1)OCO2)N(c1ccccc1)c1ccccc1 [BDDPA, (E)-3-benzo[1,3]dioxol-5-yl-N,N-diphenyl-2-propenamide]",Recrystallization on storage over night below room temperature,[1],no recrystallization occurs
same,BDDPA dissolved in binary and ternary solvent combinations at room temperature,[2]; 23° C.,completely dissolved
same,BDDPA dissolved in binary and ternary solvent combinations at high temperature,[2]; 90° C.,remains stably dissolved
same,BDDPA dissolved in the respective solvents at room temperature,"[3]; 23° C., solvents of table 1",completely dissolved
same,Temperature at which BDDPA dissolves in the solvents of table 1,[3]; where necessary by means of ultrasonification,≤ 65 °C
